Read-outs that look alike come from different tables or passages of the source.
Tests used:
HIV = type: cell-based; settings: ratio CD50/ED50
Description: (§1) The anti-HIV assays were based on the inhibition of the virus-induced cytopathic effect in MT-4 cells as a described method in J. Med. Chem, 34, 357, 1991. Briefly, MT-4 cells were suspended in culture medium at 2.5×10^5 cells/ml and infected with 1000 CCID50 (50% cell culture infective dose) of HIV. Immediately, after virus infection, 100 μl of the cell suspension was brought into each well of a flat-bottomedmicrotitray containing various concentrations of the test compounds. After a 4 or 5 days incubation at 37° C., the number of viable cells was determined by the 3-(4,5-dimethylthiazol-2-yl)-2,5-diphenyltetrazolium bromide (MTT) method, as disclosed in J. Virol. Methods, 20, 309, 1988. The cytotoxicity of the compounds of the present invention was assessed in parallel with their antiviral activity. It was based on the viability of mock-infected host cells as determined by the MTT methods.

MT-4 cells = experiment: cytotoxicity: viability of mock-infected MT-4 host cells (MTT method); type: cell-based; parameters: unit not given here; settings: mock-infected MT-4 cells
Description: as §1

[1] = marker a (undefined, shared with AZT^a)
[2] = marker b (undefined, shared with AZT^b)
[3] = marker c (undefined, shared with AZT^c)
[4] = marker d (undefined, shared with AZT^d)
[5] = marker e (undefined, shared with AZT^e)

## Cc1cn([C@H]2C[C@H](N=[N+]=[N-])[C@@H](CO)O2)c(=O)[nH]c1=O [AZT, reference compound]
HIV; [1]
  S.I.: 5,825
HIV; [2]
  S.I.: 1,123
HIV; [3]
  S.I.: 83
HIV; [4]
  S.I.: 5,500
HIV; [5]
  S.I.: 3,172
HIV; no run marker
  S.I.: 2,633
MT-4 cells; [1]
  CD50: 1.13
MT-4 cells; [2]
  CD50: 0.73
MT-4 cells; [3]
  CD50: 0.057
MT-4 cells; [4]
  CD50: 2.75
MT-4 cells; [5]
  CD50: 1.84
MT-4 cells; no run marker
  CD50: 1.58

## CCc1c(Sc2cc(C)cc(C)c2)n(CC2CC=CC2)c(=O)[nH]c1=O [Example 2, 1-[(Cyclopent-3-en-1-yl)methyl]-5-ethyl-6-(3,5-dimethylphenylthio)-2,4-pyrimidinedione]
HIV; no run marker
  S.I.: 60,930
MT-4 cells; no run marker
  CD50: 7.86

## Cc1cc(C)cc(Sc2c(C(C)C)c(=O)[nH]c(=O)n2CC2CC=CC2)c1 [Example 4, 1-[(Cyclopent-3-en-1-yl)methyl]-5-isopropyl-6-(3,5-dimethylphenylthio) -2,4-pyrimidinedione]
HIV; [1]
  S.I.: 2,111
MT-4 cells; [1]
  CD50: 11.40

## CCc1c(Sc2cc(C)cc(C)c2)n(CC2=CCC(CO)C2)c(=O)[nH]c1=O (centres unmarked) [Example 7, 1-[(4-Hydroxymethylcyclopent-1-en-1-yl)methyl]-5-ethyl-6-(3,5-dimethylphenylthio)-2,4-pyrimidinedione]
HIV; no run marker
  S.I.: 3,004
MT-4 cells; no run marker
  CD50: 7.69

## Cc1cc(C)cc(Sc2c(C(C)C)c(=O)[nH]c(=O)n2CC2=CCC(CO)C2)c1 (centres unmarked) [Example 9, 1-[(4-Hydroxymethylcyclopent-1-en-1-yl)methyl]-5-isopropyl-6-(3,5-di-methylphenylthio)-2,4-pyrimidinedione]
HIV; no run marker
  S.I.: 16,785
MT-4 cells; no run marker
  CD50: 8.51

## CCc1c(Oc2cc(C)cc(C)c2)n(CC2CC=CC2)c(=O)[nH]c1=O [Example 14, 1-[(Cyclopent-3-en-1-yl)methyl]-5-ethyl-6-(3,5-dimethylphenoxy)-2,4-pyrimidinedione]
HIV; [2]
  S.I.: 400,238
MT-4 cells; [2]
  CD50: 16.81

## Cc1cc(C)cc(Oc2c(C(C)C)c(=O)[nH]c(=O)n2CC2CC=CC2)c1 [Example 15, 1-[(Cyclopent-3-en-1-yl)methyl]-5-isopropyl-6-(3,5-dimethylphenoxy)-2,4-pyrimidinedione]
HIV; [1]
  S.I.: 1,624
MT-4 cells; [1]
  CD50: 10.07

## CCc1c(C(=O)c2cc(C)cc(C)c2)n(CC2CC=CC2)c(=O)[nH]c1=O [Example 16, 1-[(Cyclopent-3-en-1-yl)methyl]-5-ethyl-6-(3,5-dimethylbenzoyl)-2,4-pyrimidinedione]
MT-4 cells; [3]
  CD50: 1.52

## Cc1cc(C)cc(C(=O)c2c(C(C)C)c(=O)[nH]c(=O)n2CC2CC=CC2)c1 [Example 17, 1-[(Cyclopent-3-en-1-yl)methyl]-5-isopropyl-6-(3,5-dimethylbenzoyl)-2,4-pyrimidinedione]
HIV; [1]
  S.I.: 3,615
MT-4 cells; [1]
  CD50: 19.16

## CCc1c(Oc2cc(C)cc(C)c2)n(CC2=CCC(CO)C2)c(=O)[nH]c1=O (centres unmarked) [Example 18, 1-[(4-Hydroxymethylcyclopent-1-en-1-yl)methyl]-5-ethyl-6-(3,5-dimethyl-phenoxy)-2,4-pyrimidinedione]
HIV; no run marker
  S.I.: 1,131
MT-4 cells; no run marker
  CD50: 12.78

## CCc1c(Oc2cc(C)cc(C)c2)n(CC2=CCCC2CO)c(=O)[nH]c1=O (centres unmarked) [Example 19, 1-[(5-Hydroxymethylcyclopent-1-en-1-yl)methyl]-5-ethyl-6-(3,5-dimethyphenoxy)-2,4-pyrimidinedione]
HIV; no run marker
  S.I.: 1,384
MT-4 cells; no run marker
  CD50: 55.37

## Cc1cc(C)cc(Sc2c(C(C)C)c(=O)[nH]c(=O)n2CC2CCCC2)c1 [Example 20, 1-[(Cyclopentyl)methyl]-5-isopropyl-6-(3,5-dimethyphenylthio)-2,4-pyrimidinedione]
HIV; [2]
  S.I.: 24,264
MT-4 cells; [2]
  CD50: 11.38

## Cc1cc(C)cc(Oc2c(C(C)C)c(=O)[nH]c(=O)n2CC2CCCC2)c1 [Example 21, 1-(Cyclopentyl)methyl-5-isopropyl-6-(3,5-dimethylphenoxy)-2,4-pyrimidinedione]
HIV; [2]
  S.I.: 3,089
MT-4 cells; [2]
  CD50: 10.04

## Cc1cc(C)cc(C(=O)c2c(C(C)C)c(=O)[nH]c(=O)n2CC2CCCC2)c1 [Example 22, 1-(Cyclopentyl)methyl-5-isopropyl-6-(3,5-dimethylbenzoyl)-2,4-pyrimidinedione]
MT-4 cells; [2]
  CD50: 9.97

## CCc1c(C(=O)c2cc(C)cc(C)c2)n(CC2CCCC2)c(=O)[nH]c1=O [Example 23, 1-(Cyclopentyl)methyl-5-ethyl-6-(3,5-dimethylbenzoyl)-2,4-pyrimidinedione]
HIV; [4]
  S.I.: > 384,615
MT-4 cells; [4]
  CD50: > 100

## CCc1c(Sc2cc(C)cc(C)c2)n(CC2=CCC(CO)(CO)C2)c(=O)[nH]c1=O [Example 25, 1-{[4-Bis(hydroxymethyl)cyclopent-1-en-1-yl]methyl}-5-ethyl-6-(3,5-dimethyl-phenylthio)-2,4-pyrimidinedione]
HIV; no run marker
  S.I.: 2,762
MT-4 cells; no run marker
  CD50: 14.64

## CCc1c(C(=O)c2cc(C)cc(C)c2)n(CCC2=CCCC2)c(=O)[nH]c1=O [Example 35, 1-[2-(Cyclopent-1-en-1-yl)ethyl]-5-ethyl-6-(3,5-dimethylbenzoyl)-2,4-pyrimidinedione]
HIV; [4]
  S.I.: 9,958
MT-4 cells; [4]
  CD50: 28.58

## CCc1c(C(=O)c2cc(C)cc(C)c2)n(CCC2CC=CC2)c(=O)[nH]c1=O [Example 36, 1-[2-(Cyclopent-3-en-1-yl)ethyl]-5-ethyl-6-(3,5-dimethylbenzoyl)-2,4-pyrimidinedione]
HIV; [4]
  S.I.: 30,294
MT-4 cells; [4]
  CD50: 10.30

## Cc1cc(C)cc(C(=O)c2c(C(C)C)c(=O)[nH]c(=O)n2CCC2CC=CC2)c1 [Example 37, 1-[2-(Cyclopent-3-en-1-yl)ethyl]-5-isopropyl-6-(3,5-dimethylbenzoyl)-2,4-pyrimidinedione]
HIV; [4]
  S.I.: 13,377
MT-4 cells; [4]
  CD50: 9.23

## CCc1c(C(=O)c2cc(C)cc(C)c2)n(CCC2C=CCC2)c(=O)[nH]c1=O (centres unmarked) [Example 40, 1-{2-(Cyclopent-2-en-1-yl)ethyl]-5-ethyl-6-(3,5-dimethylbenzoyl)-2,4-pyrimidinedione]
HIV; [5]
  S.I.: > 27,346
MT-4 cells; [5]
  CD50: 7.11

## Cc1cc(C)cc(Oc2c(C(C)C)c(=O)[nH]c(=O)n2CCC2C=CCC2)c1 (centres unmarked) [Example 42, 1-[2-(Cyclopent-2-en-1-yl)ethyl]-5-isopropyl-6-(3,5-dimethylphenoxy)-2,4-pyrimidinedione]
HIV; [5]
  S.I.: 2,353
MT-4 cells; [5]
  CD50: 7.53

## CCc1c(C(=O)c2cc(C)cc(C)c2)n(CCC2CCCC2)c(=O)[nH]c1=O [Example 44, 1-(2-Cyclopentyl)ethyl-5-ethyl-6-(3,5-dimethylbenzoyl)-2,4-pyrimidinedione]
HIV; [5]
  S.I.: 5,958
MT-4 cells; [5]
  CD50: 8.58

## CCc1c(Sc2ccccc2)n(CC2CC2(CO)CO)c(=O)[nH]c1=O (centres unmarked) [Example 48, 1-[2-Bis(hydroxymethyl)cyclopropane-1-yl]methyl-5-ethyl-6-phenylthio-2,4-pyrimidinedione]
HIV; [3]
  S.I.: 923
MT-4 cells; [3]
  CD50: 96.95

## CCc1c(Sc2cc(C)cc(C)c2)n(CC2CC2(CO)CO)c(=O)[nH]c1=O (centres unmarked) [Example 49, 1-[2-Bis(hydroxymethyl)cyclopropane-1-yl]methyl-5-ethyl-(3,5-dimethylphenylthio)-2,4-pyrimidinedione]
HIV; [3]
  S.I.: 18,271
MT-4 cells; [3]
  CD50: 21.56

## CCc1c(Oc2cc(C)cc(C)c2)n(CC2CC2(CO)CO)c(=O)[nH]c1=O (centres unmarked) [Example 50, 1-[2-Bis(hydroxymethyl)cyclopropane-1-yl]methyl-5-ethyl-6-(3,5-dimethylphenoxy)-2,4-pyrimidinedione]
HIV; [3]
  S.I.: 7,763
MT-4 cells; [3]
  CD50: 111.79

## CCc1c(C(=O)c2cc(C)cc(C)c2)n(CC2CC2(CO)CO)c(=O)[nH]c1=O (centres unmarked) [Example 51, 1-[2-Bis(hydroxymethyl)cyclopropane-1-yl]methyl-5-ethyl-6-(3,5-dimethylbenzoyl)-2,4-pyrimidinedione]
HIV; [3]
  S.I.: 12,165
MT-4 cells; [3]
  CD50: 128.95

## CC(C)c1c(Sc2ccccc2)n(CC2CC2(CO)CO)c(=O)[nH]c1=O (centres unmarked) [Example 52, 1-[2-Bis(hydroxymethyl)cyclopropane-1-yl]methyl-5-isopropyl-6-phenylthio-2,4-pyrimidinedione]
HIV; [3]
  S.I.: 1,496
MT-4 cells; [3]
  CD50: 104.12

## Cc1cc(C)cc(Sc2c(C(C)C)c(=O)[nH]c(=O)n2CC2CC2(CO)CO)c1 (centres unmarked) [Example 53, 1-[2-Bis(hydroxymethyl)cyclopropane-1-yl]methyl-5-isopropyl-6-(3,5-dimethylphenylthio)-2,4-pyrimidinedione]
HIV; [3]
  S.I.: 7,199
MT-4 cells; [3]
  CD50: 13.39

## Cc1cc(C)cc(Oc2c(C(C)C)c(=O)[nH]c(=O)n2CC2CC2(CO)CO)c1 (centres unmarked) [Example 54, 1-[2-Bis(hydroxymethyl)cyclopropane-1-yl]methyl-5-isopropyl-6-(3,5-dimethylphenoxy)-2,4-pyrimidinedione]
HIV; [3]
  S.I.: 3,004
MT-4 cells; [3]
  CD50: 7.69

## Cc1cc(C)cc(C(=O)c2c(C(C)C)c(=O)[nH]c(=O)n2CC2CC2(CO)CO)c1 (centres unmarked) [Example 55, 1-[2-Bis(hydroxymethyl)cyclopropane-1-yl]methyl-5-isopropyl-6-(3,5-dimethylbenzoyl)-2,4-pyrimidinedione]
HIV; [3]
  S.I.: 21,806
MT-4 cells; [3]
  CD50: 131.71
